Measurements: the supplement of paper PMC10307832

What was measured:
Experiment in all cases: relative viability (nuclei count vs DMSO), 5 days (fraction); higher = more cells survive
BEN = system: BEN
In short: (§1)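 Relative viability divides the nuclei count in treated wells by that in vehicle wells. Lung cancer cell lines were seeded in 1536-well plates, dosed by pin tool the next day, and fixed and stained after 5 days in one step with final 0.05% Triton X-100, 1% formaldehyde and 1 ug/ml Hoechst. Dosing was a single drug or a fixed anchor-drug dose plus five library-drug doses (not always all listed) in √10 steps, and values are medians of duplicate plates imaged at 4×.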

ChaGo-K-1 = system: ChaGo-K-1
In short: as §1

HCC-78 = system: HCC-78
In short: as §1

LC-2-ad = system: LC-2-ad
In short: as §1

LCLC-97TM1 = system: LCLC-97TM1
In short: as §1

LK-2 = system: LK-2
In short: as §1

LU99A = system: LU99A
In short: as §1

LXF-289 = system: LXF-289
In short: as §1

NCI-H1355 = system: NCI-H1355
In short: as §1

NCI-H1651 = system: NCI-H1651
In short: as §1

NCI-H1666 = system: NCI-H1666
In short: as §1

NCI-H1944 = system: NCI-H1944
In short: as §1

NCI-H1975 = system: NCI-H1975
In short: as §1

NCI-H2087 = system: NCI-H2087
In short: as §1

NCI-H2342 = system: NCI-H2342
In short: as §1

NCI-H358 = system: NCI-H358
In short: as §1

NCI-H596 = system: NCI-H596
In short: as §1

NCI-H650 = system: NCI-H650
In short: as §1

NCI-H838 = system: NCI-H838
In short: as §1

PC-3 [JPC-3] = system: PC-3 [JPC-3]
In short: as §1

`O=c1cc(-c2cccc3c2Sc2ccccc2S3)oc(N2CCOCC2)c1` + NC(=O)Nc1cc(-c2cccc(F)c2)sc1C(=O)N[C@H]1CCCNC1 [AZD7762] (partner 0.2 µM) gave a relative viability (BEN; first compound 0.08 µM) of 0.694, a relative viability (BEN; first compound 0.253 µM) of 0.656 and a relative viability (BEN; first compound 0.8 µM) of 0.647. The relative viability (BEN; first compound 2.53 µM) was 0.618, the relative viability (BEN; first compound 8 µM) was 0.734 and the relative viability (ChaGo-K-1; first compound 0.08 µM) was 0.827. For the same compound, the relative viability (ChaGo-K-1; first compound 0.253 µM) was 0.942, the relative viability (ChaGo-K-1; first compound 0.8 µM) was 0.779 and the relative viability (ChaGo-K-1; first compound 2.53 µM) was 0.889. For the same compound, the relative viability (ChaGo-K-1; first compound 8 µM) was 0.975, the relative viability (HCC-78; first compound 0.08 µM) was 0.624 and the relative viability (HCC-78; first compound 0.253 µM) was 0.643. It also gave a relative viability (HCC-78; first compound 0.8 µM) of 0.472, a relative viability (HCC-78; first compound 2.53 µM) of 0.614 and a relative viability (HCC-78; first compound 8 µM) of 0.655. It also gave a relative viability (LC-2-ad; first compound 0.08 µM) of 0.805, a relative viability (LC-2-ad; first compound 0.253 µM) of 0.944 and a relative viability (LC-2-ad; first compound 0.8 µM) of 0.853. It also gave a relative viability (LC-2-ad; first compound 2.53 µM) of 0.741, a relative viability (LC-2-ad; first compound 8 µM) of 0.797 and a relative viability (LCLC-97TM1; first compound 0.08 µM) of 0.303. It also gave a relative viability (LCLC-97TM1; first compound 0.253 µM) of 0.191, a relative viability (LCLC-97TM1; first compound 0.8 µM) of 0.265 and a relative viability (LCLC-97TM1; first compound 2.53 µM) of 0.114. It also gave a relative viability (LCLC-97TM1; first compound 8 µM) of 0.345, a relative viability (LK-2; first compound 0.08 µM) of 0.468 and a relative viability (LK-2; first compound 0.253 µM) of 0.331. The relative viability (LK-2; first compound 0.8 µM) was 0.374, the relative viability (LK-2; first compound 2.53 µM) was 0.219 and the relative viability (LK-2; first compound 8 µM) was 0.458. It also gave a relative viability (LU99A; first compound 0.08 µM) of 0.28, a relative viability (LU99A; first compound 0.253 µM) of 0.349 and a relative viability (LU99A; first compound 0.8 µM) of 0.38. For the same compound, the relative viability (LU99A; first compound 2.53 µM) was 0.309, the relative viability (LU99A; first compound 8 µM) was 0.456 and the relative viability (LXF-289; first compound 0.08 µM) was 1.11. It also gave a relative viability (LXF-289; first compound 0.253 µM) of 1.18, a relative viability (LXF-289; first compound 0.8 µM) of 1.15 and a relative viability (LXF-289; first compound 2.53 µM) of 1.09. For the same compound, the relative viability (LXF-289; first compound 8 µM) was 1.12, the relative viability (NCI-H1355; first compound 0.08 µM) was 0.703 and the relative viability (NCI-H1355; first compound 0.253 µM) was 0.915. The relative viability (NCI-H1355; first compound 0.8 µM) was 0.743, the relative viability (NCI-H1355; first compound 2.53 µM) was 0.554 and the relative viability (NCI-H1355; first compound 8 µM) was 0.756. The relative viability (NCI-H1651; first compound 0.08 µM) was 0.452, the relative viability (NCI-H1651; first compound 0.253 µM) was 0.538 and the relative viability (NCI-H1651; first compound 0.8 µM) was 0.44. For the same compound, the relative viability (NCI-H1651; first compound 2.53 µM) was 0.389, the relative viability (NCI-H1651; first compound 8 µM) was 0.425 and the relative viability (NCI-H1666; first compound 0.08 µM) was 0.76. It also gave a relative viability (NCI-H1666; first compound 0.253 µM) of 0.928, a relative viability (NCI-H1666; first compound 0.8 µM) of 0.781 and a relative viability (NCI-H1666; first compound 2.53 µM) of 0.773. For the same compound, the relative viability (NCI-H1666; first compound 8 µM) was 0.85, the relative viability (NCI-H1944; first compound 0.08 µM) was 0.54 and the relative viability (NCI-H1944; first compound 0.253 µM) was 0.456. It also gave a relative viability (NCI-H1944; first compound 0.8 µM) of 0.48, a relative viability (NCI-H1944; first compound 2.53 µM) of 0.55 and a relative viability (NCI-H1944; first compound 8 µM) of 0.51. It also gave a relative viability (NCI-H1975; first compound 0.08 µM) of 0.601, a relative viability (NCI-H1975; first compound 0.253 µM) of 0.733 and a relative viability (NCI-H1975; first compound 0.8 µM) of 0.502. It also gave a relative viability (NCI-H1975; first compound 2.53 µM) of 0.631, a relative viability (NCI-H1975; first compound 8 µM) of 0.678 and a relative viability (NCI-H2087; first compound 0.08 µM) of 1.25. The relative viability (NCI-H2087; first compound 0.253 µM) was 1.46, the relative viability (NCI-H2087; first compound 0.8 µM) was 1.07 and the relative viability (NCI-H2087; first compound 2.53 µM) was 1.31. The relative viability (NCI-H2087; first compound 8 µM) was 1.25, the relative viability (NCI-H2342; first compound 0.08 µM) was 0.415 and the relative viability (NCI-H2342; first compound 0.253 µM) was 0.466. For the same compound, the relative viability (NCI-H2342; first compound 0.8 µM) was 0.545, the relative viability (NCI-H2342; first compound 2.53 µM) was 0.529 and the relative viability (NCI-H2342; first compound 8 µM) was 0.541. For the same compound, the relative viability (NCI-H358; first compound 0.08 µM) was 0.456, the relative viability (NCI-H358; first compound 0.253 µM) was 0.581 and the relative viability (NCI-H358; first compound 0.8 µM) was 0.523. For the same compound, the relative viability (NCI-H358; first compound 2.53 µM) was 0.501, the relative viability (NCI-H358; first compound 8 µM) was 0.534 and the relative viability (NCI-H596; first compound 0.08 µM) was 1.04. For the same compound, the relative viability (NCI-H596; first compound 0.253 µM) was 1.1, the relative viability (NCI-H596; first compound 0.8 µM) was 1.15 and the relative viability (NCI-H596; first compound 2.53 µM) was 1. It also gave a relative viability (NCI-H596; first compound 8 µM) of 1.22, a relative viability (NCI-H650; first compound 0.08 µM) of 0.886 and a relative viability (NCI-H650; first compound 0.253 µM) of 1.09. It also gave a relative viability (NCI-H650; first compound 0.8 µM) of 1.03, a relative viability (NCI-H650; first compound 2.53 µM) of 0.668 and a relative viability (NCI-H650; first compound 8 µM) of 1.01. It also gave a relative viability (NCI-H838; first compound 0.08 µM) of 0.933, a relative viability (NCI-H838; first compound 0.253 µM) of 1.09 and a relative viability (NCI-H838; first compound 0.8 µM) of 0.898. For the same compound, the relative viability (NCI-H838; first compound 2.53 µM) was 0.941, the relative viability (NCI-H838; first compound 8 µM) was 0.98 and the relative viability (PC-3 [JPC-3]; first compound 0.08 µM) was 0.721. The relative viability (PC-3 [JPC-3]; first compound 0.253 µM) was 0.745, the relative viability (PC-3 [JPC-3]; first compound 0.8 µM) was 0.758 and the relative viability (PC-3 [JPC-3]; first compound 2.53 µM) was 0.766. The relative viability (PC-3 [JPC-3]; first compound 8 µM) was 0.728.
